According to ChEMBL document CHEMBL4673274, “Cytotoxic components from the leaves of Erythrophleum fordii induce human acute leukemia cell apoptosis through caspase 3 activation and PARP cleavage” (Bioorg Med Chem Lett, 2021):
Calls of active or inactive are those of the source. The rule behind the calls is not given here.

Tests used:
Assay type in all cases: functional, cell-based
KG-1 [1] = assay: Cytotoxicity against human KG-1 cells assessed as reduction in cell viability incubated for 48 hrs by CCK-8 assay; details: KG-1, 48 h
HL-60 [2] = assay: Cytotoxicity against human HL-60 cells assessed as reduction in cell viability incubated for 48 hrs by CCK-8 assay; details: HL-60, 48 h
KG-1 [3] = assay: Induction of apoptosis in human KG-1 cells assessed as increase in PARP cleavage incubated for 48 hrs by Western blot analysis; details: dose 10-30 µM
HL-60 [4] = assay: Induction of apoptosis in human HL-60 cells assessed as increase in Bax expression at 10 to 30 uM incubated for 48 hrs by Western blot analysis; details: dose 10-30 µM
KG-1 [5] = assay: Induction of apoptosis in human KG-1 cells assessed as caspase 3 activation incubated for 48 hrs by Western blot analysis; details: dose 10-30 µM
HL-60 [6] = assay: Induction of apoptosis in human HL-60 cells assessed as decrease in Bcl2 expression incubated for 48 hrs by Western blot analysis; details: dose 10-30 µM
HL-60 [7] = assay: Induction of apoptosis in human HL-60 cells assessed as caspase 9 activation incubated for 48 hrs by Western blot analysis; details: dose 10-30 µM
HL-60 [8] = assay: Induction of apoptosis in human HL-60 cells assessed as increase in Cyt-c expression at 10 to 30 uM incubated for 48 hrs by Western blot analysis; details: dose 10-30 µM
KG-1 [9] = assay: Induction of apoptosis in human KG-1 cells assessed as caspase 9 activation incubated for 48 hrs by Western blot analysis; details: dose 10-30 µM
HL-60 [10] = assay: Induction of apoptosis in human HL-60 cells assessed as increase in PARP cleavage incubated for 48 hrs by Western blot analysis; details: dose 10-30 µM
HL-60 [11] = assay: Induction of apoptosis in human HL-60 cells assessed as caspase 3 activation incubated for 48 hrs by Western blot analysis; details: dose 10-30 µM

SMILES	IC50 (KG-1 [1])	IC50 (HL-60 [2])	also measured
COC(=O)[C@]1(C)[C@@H]2C(=O)[C@H](O)[C@H]3[C@@H](C)/C(=C/C(=O)O)CC[C@@H]3[C@@]2(C)CC[C@@H]1O	35.7 µM	24.3 µM	–
CCOC(C)=O [ETHYL ACETATE]	> 300 µg/mL	216 µg/mL	–
COC(=O)[C@]1(C)[C@@H]2[C@@H](O)C(=O)[C@H]3[C@@H](C)/C(=C/C(=O)O)CC[C@@H]3[C@@]2(C)CC[C@@H]1O	> 50 µM	28.7 µM	–
COC(=O)CC1=CC[C@H]2[C@@H](C(=O)[C@H](O)[C@@H]3[C@]2(C)CCC[C@]3(C)C(=O)OC)[C@H]1C	42.2 µM	28.5 µM	–
ClCCl [METHYLENE CHLORIDE]	149 µg/mL	116 µg/mL	–
CC[C@@]1(O)C(=O)OCc2c1cc1n(c2=O)Cc2cc3ccccc3nc2-1 [CAMPTOTHECIN]	1.6 µM	1.7 µM	–
COC(=O)/C=C1\CC[C@H]2[C@@H](C(=O)[C@H](O)[C@@H]3[C@]2(C)CC[C@H](O)[C@]3(C)C(=O)OC)[C@H]1C	> 50 µM	25.7 µM	–
COC(=O)[C@]1(C)[C@@H]2C(=O)[C@H](OC(C)=O)[C@H]3[C@@H](C)/C(=C/C(=O)O)CC[C@@H]3[C@@]2(C)CC[C@@H]1O	18.6 µM	15.2 µM	Activity (KG-1 [3]): Dose-dependent effect; Activity (HL-60 [4]): Active; Activity (KG-1 [5]): Dose-dependent effect; Activity (HL-60 [6]): Dose-dependent effect; Activity (HL-60 [7]): Dose-dependent effect; Activity (HL-60 [8]): Active; Activity (KG-1 [9]): Dose-dependent effect; Activity (HL-60 [10]): Dose-dependent effect; Activity (HL-60 [11]): Dose-dependent effect
CCCCCC [HEXANE]	–	> 300 µg/mL	–
